From US20240376163A1, “PEPTIDE FOR INHIBITING CALCINEURIN AND USE THEREOF” (Seoul National University R&DB Foundation, priority 2023, published 2024)

Tested on: Jurkat T cells
Test: mRNA sequencing of activated Jurkat T cells
Format: cell-based, human
Settings: Jurkat T cells, P + I

C=CC[C@@H]1/C=C(\C)C[C@H](C)C[C@H](OC)[C@H]2O[C@@](O)(C(=O)C(=O)N3CCCC[C@H]3C(=O)O[C@H](/C(C)=C/[C@@H]3CC[C@@H](O)[C@H](OC)C3)[C@H](C)[C@@H](O)CC1=O)[C@H](C)C[C@@H]2OC [FK506, Tacrolimus, reference compound]
MSMO1 FPKM: 59.655 FPKM | MT2A FPKM: 369.658 FPKM | MXD3 FPKM: 17.861 FPKM | MYB FPKM: 58.524 FPKM | MZB1 FPKM: 22.015 FPKM | N4BP3 FPKM: 1.739 FPKM | NAA16 FPKM: 3.527 FPKM | NCKAP1 FPKM: 8.582 FPKM | NCOA3 FPKM: 9.949 FPKM | NDRG1 FPKM: 126.361 FPKM | NDRG2 FPKM: 2.881 FPKM | NEDD9 FPKM: 3.748 FPKM | NFATC1 FPKM: 3.793 FPKM | NFKB1 FPKM: 34.242 FPKM | NFKB2 FPKM: 49.22 FPKM | NLRC3 FPKM: 7.789 FPKM | NME4 FPKM: 16.395 FPKM | NOTCH2 FPKM: 10.308 FPKM | NOTCH3 FPKM: 0.902 FPKM | NPDC1 FPKM: 4.328 FPKM | NR4A3 FPKM: 1.927 FPKM | NREP FPKM: 9.925 FPKM | NRP1 FPKM: 14.572 FPKM | NSG1 FPKM: 4.302 FPKM | NSMF FPKM: 3.164 FPKM | NT5E FPKM: 8.91 FPKM | NTRK1 FPKM: 0.836 FPKM | ODC1 FPKM: 245.466 FPKM | OPTN FPKM: 12.958 FPKM | OSBPL5 FPKM: 3.354 FPKM | PAM FPKM: 1.483 FPKM | PCNA-AS1 FPKM: 70.937 FPKM | PDCD1 FPKM: 1.377 FPKM | PDGFA FPKM: 3.25 FPKM | PDGFC FPKM: 2.292 FPKM | PDIA6 FPKM: 123.669 FPKM | PDLIM1 FPKM: 6.874 FPKM | PELI2 FPKM: 11.262 FPKM | PEX5L FPKM: 1.428 FPKM | PHACTR2 FPKM: 2.927 FPKM | PHLDB2 FPKM: 3.898 FPKM | PI16 FPKM: 17.07 FPKM | PKIG FPKM: 12.411 FPKM | PKM FPKM: 1736.037 FPKM | PLAC8 FPKM: 3.158 FPKM | PLEC FPKM: 21.747 FPKM | PLS3 FPKM: 0.052 FPKM | POTEE FPKM: 1.42 FPKM | POU2AF1 FPKM: 2.274 FPKM | POU2F2 FPKM: 3.317 FPKM | PPIF FPKM: 50.291 FPKM | PPP1R15A FPKM: 77.478 FPKM | PPP1R16B FPKM: 29.659 FPKM | PRDM8 FPKM: 39.913 FPKM | PRNP FPKM: 39.685 FPKM | PSMB10 FPKM: 104.49 FPKM | PTPN6 FPKM: 20.906 FPKM | PTPN7 FPKM: 93.59 FPKM | PXYLP1 FPKM: 5.01 FPKM | QPRT FPKM: 13.402 FPKM | RAB37 FPKM: 2.455 FPKM | RASGRP1 FPKM: 4.464 FPKM | RASGRP2 FPKM: 3.002 FPKM | RB1 FPKM: 62.321 FPKM | RCBTB2 FPKM: 13.008 FPKM | RCOR2 FPKM: 1.361 FPKM | RGS2 FPKM: 3.365 FPKM | RHOU FPKM: 1.51 FPKM | RNF19A FPKM: 12.334 FPKM | RNF212 FPKM: 1.059 FPKM | RORA FPKM: 2.502 FPKM | RRAS2 FPKM: 18.257 FPKM | RTN4R FPKM: 2.449 FPKM | RUNX1 FPKM: 37.963 FPKM | RUNX3 FPKM: 23.624 FPKM | SASH3 FPKM: 59.349 FPKM | SBK1 FPKM: 9.239 FPKM | SCG2 FPKM: 159.394 FPKM | SCHIP1 FPKM: 1.535 FPKM | SEPT3 FPKM: 1.089 FPKM | SEPT6 FPKM: 55.091 FPKM | SEPT9 FPKM: 55.265 FPKM | SERINC5 FPKM: 3.184 FPKM | SERPINB8 FPKM: 23.788 FPKM | SERPINE2 FPKM: 3.936 FPKM | SERTAD1 FPKM: 16.162 FPKM | SGK1 FPKM: 76.683 FPKM | SH2D1A FPKM: 23.649 FPKM | SH2D2A FPKM: 20.658 FPKM | SH3TC1 FPKM: 1.562 FPKM | SIVA1 FPKM: 50.269 FPKM | SLAMF1 FPKM: 0.217 FPKM | SLAMF7 FPKM: 3.121 FPKM | SLAMF8 FPKM: 5.282 FPKM | SLC22A1 FPKM: 7.005 FPKM | SLC27A2 FPKM: 41.996 FPKM | SLC29A4 FPKM: 1.68 FPKM | SLC35E4 FPKM: 0.952 FPKM | SLC35G2 FPKM: 10.118 FPKM
